According to patent US20230085307A1, “PYRIDAZINONE COMPOUND AND HERBICIDE” (NISSAN CHEMICAL CORPORATION, priority 2019, published 2023):

These compounds were tested on Japanese bulrush (assay: Test Example 2: herbicidal activity, application during weed generation under submerged conditions (Table 17, symbol B)). Conditions: AAH 320 g/ha; application during weed generation, submerged conditions.
Format: in vivo, Japanese bulrush (Schoenoplectus juncoides)
In short: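 In this pot test, flooded alluvial soil (water depth 4 cm) holds all three species sown as a mixture. Once seedlings have one to two leaves, the compound's emulsion, thinned with water to the intended dose, is poured on the water; grading follows after three weeks on the earlier criteria.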

| SMILES | herbicidal effect rating, B: Japanese bulrush |
| --- | --- |
| CCCC(=O)Oc1c(C)nn(C)c(=O)c1-c1c(-c2ccc(F)cc2OCC)sc2cc(OC)ccc12 [3-079] | 5 (Herbicidal rate of 90% or more (almost completely withered)) |
| COc1ccc2c(-c3c(O)c(C)nn(C)c3=O)c(-c3ccc4c(c3)OCCO4)sc2c1 [3-082] | 1 (Herbicidal rate of 5% or more and less than 20%) |

The compounds below were run on Chinese sprangletop (assay: Test Example 3: herbicidal effect by foliage application, Wagner pot (Table 18, symbol D)). Conditions: 320 g/ha.
Format: in vivo, chinese sprangletop (Leptochloa chinensis)
In short: (§1)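 Plants were sown in alluvial soil held under 0.1–0.5 cm standing water and grown 14 days in a greenhouse at 25–30 °C. An emulsifiable formulation, water-diluted to the set dose, was then sprayed onto the foliage, and effects were scored three weeks later using previously defined criteria.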

| SMILES | herbicidal effect on Chinese sprangletop (D) |
| --- | --- |
| CCCC(=O)Oc1c(C)nn(C)c(=O)c1-c1c(-c2ccc(F)cc2OCC)sc2cc(OC)ccc12 [3-079] | 4 (Herbicidal rate of 70% or more and less than 90%) |
| COc1ccc2c(-c3c(O)c(C)nn(C)c3=O)c(-c3ccc4c(c3)OCCO4)sc2c1 [3-082] | 3 (Herbicidal rate of 40% or more and less than 70%) |

The compounds below were run on rice flat sedge (assay: Test Example 3: herbicidal effect by foliage application, Wagner pot (Table 18, symbol E)). Conditions: 320 g/ha.
Format: in vivo, rice flat sedge (Cyperus iria)
In short: as §1

| SMILES | herbicidal effect on rice flat sedge (E) |
| --- | --- |
| CCCC(=O)Oc1c(C)nn(C)c(=O)c1-c1c(-c2ccc(F)cc2OCC)sc2cc(OC)ccc12 [3-079] | 5 (Herbicidal rate of 90% or more (almost completely withered)) |
| COc1ccc2c(-c3c(O)c(C)nn(C)c3=O)c(-c3ccc4c(c3)OCCO4)sc2c1 [3-082] | 5 (Herbicidal rate of 90% or more (almost completely withered)) |

These compounds were tested on green foxtail (assay: Test Example 4: herbicidal effect by soil treatment (Table 19, symbol G)). Conditions: amount of applied herbicide 320 g/ha.
Format: in vivo, green foxtail (Setaria viridis)
In short: (§2)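 Pre-emergence style soil spray: seeds under ~1.5 cm sterilized diluvial soil received a uniform coat of emulsion diluted to the predetermined herbicide amount. Greenhouse 25–30° C; readout at week three on previously defined criteria.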

| SMILES | G: green foxtail, herbicidal effect grade |
| --- | --- |
| CCCC(=O)Oc1c(C)nn(C)c(=O)c1-c1c(-c2ccc(F)cc2OCC)sc2cc(OC)ccc12 [3-079] | 1 (Herbicidal rate of 5% or more and less than 20%) |
| COc1ccc2c(-c3c(O)c(C)nn(C)c3=O)c(-c3ccc4c(c3)OCCO4)sc2c1 [3-082] | 0 (Herbicidal rate of 5% or less (almost no effect)) |

These compounds were tested on barnyard grass (assay: Test Example 4: herbicidal effect by soil treatment (Table 19, symbol H)). Conditions: amount of applied herbicide 320 g/ha.
Format: in vivo, barnyard grass (Echinochloa crus-galli)
In short: as §2

| SMILES | H: barnyard grass, herbicidal effect grade |
| --- | --- |
| CCCC(=O)Oc1c(C)nn(C)c(=O)c1-c1c(-c2ccc(F)cc2OCC)sc2cc(OC)ccc12 [3-079] | 0 (Herbicidal rate of 5% or less (almost no effect)) |
| COc1ccc2c(-c3c(O)c(C)nn(C)c3=O)c(-c3ccc4c(c3)OCCO4)sc2c1 [3-082] | 0 (Herbicidal rate of 5% or less (almost no effect)) |

The compounds below were run on blackgrass (assay: Test Example 4: herbicidal effect by soil treatment (Table 19, symbol J)). Conditions: amount of applied herbicide 320 g/ha.
Format: in vivo, blackgrass (Alopecurus myosuroides)
In short: as §2

| SMILES | J: blackgrass, herbicidal effect grade |
| --- | --- |
| CCCC(=O)Oc1c(C)nn(C)c(=O)c1-c1c(-c2ccc(F)cc2OCC)sc2cc(OC)ccc12 [3-079] | 2 (Herbicidal rate of 20% or more and less than 40%) |
| COc1ccc2c(-c3c(O)c(C)nn(C)c3=O)c(-c3ccc4c(c3)OCCO4)sc2c1 [3-082] | 0 (Herbicidal rate of 5% or less (almost no effect)) |

The compounds below were run on Italian ryegrass (assay: Test Example 4: herbicidal effect by soil treatment (Table 19, symbol K)). Conditions: amount of applied herbicide 320 g/ha.
Format: in vivo, Italian ryegrass (Lolium multiflorum)
In short: as §2

| SMILES | K: Italian ryegrass, herbicidal effect grade |
| --- | --- |
| CCCC(=O)Oc1c(C)nn(C)c(=O)c1-c1c(-c2ccc(F)cc2OCC)sc2cc(OC)ccc12 [3-079] | 0 (Herbicidal rate of 5% or less (almost no effect)) |
| COc1ccc2c(-c3c(O)c(C)nn(C)c3=O)c(-c3ccc4c(c3)OCCO4)sc2c1 [3-082] | 0 (Herbicidal rate of 5% or less (almost no effect)) |

The compounds below were run on lambsquarters (assay: Test Example 4: herbicidal effect by soil treatment (Table 19, symbol O)). Conditions: amount of applied herbicide 320 g/ha.
Format: in vivo, lambsquarters (Chenopodium album)
In short: as §2

| SMILES | O: lambsquarters, herbicidal effect grade |
| --- | --- |
| CCCC(=O)Oc1c(C)nn(C)c(=O)c1-c1c(-c2ccc(F)cc2OCC)sc2cc(OC)ccc12 [3-079] | 3 (Herbicidal rate of 40% or more and less than 70%) |
| COc1ccc2c(-c3c(O)c(C)nn(C)c3=O)c(-c3ccc4c(c3)OCCO4)sc2c1 [3-082] | 0 (Herbicidal rate of 5% or less (almost no effect)) |

These compounds were tested on barnyard grass (assay: Test Example 5: herbicidal effect by foliage application, plastic box (Table 20, symbol H)). Conditions: foliage application, 320 g/ha, three weeks after application.
Format: in vivo, barnyard grass (Echinochloa crus-galli)
In short: (§3)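 Plants were sown into sterilized diluvial soil under about 1.5 cm cover and kept in a greenhouse at 25° C. to 30° C. Fourteen days on, foliage received an even spray of the diluted emulsion. Herbicidal or crop effect was judged three weeks afterwards.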

| SMILES | H: barnyard grass, herbicidal effect grade |
| --- | --- |
| CCCC(=O)Oc1c(C)nn(C)c(=O)c1-c1c(-c2ccc(F)cc2OCC)sc2cc(OC)ccc12 [3-079] | 5 (Herbicidal rate of 90% or more (almost completely withered)) |
| COc1ccc2c(-c3c(O)c(C)nn(C)c3=O)c(-c3ccc4c(c3)OCCO4)sc2c1 [3-082] | 3 (Herbicidal rate of 40% or more and less than 70%) |

The compounds below were run on wild oat (assay: Test Example 5: herbicidal effect by foliage application, plastic box (Table 20, symbol I)). Conditions: foliage application, 320 g/ha, three weeks after application.
Format: in vivo, wild oat (Avena fatua)
In short: as §3

| SMILES | I: wild oat, herbicidal effect grade |
| --- | --- |
| CCCC(=O)Oc1c(C)nn(C)c(=O)c1-c1c(-c2ccc(F)cc2OCC)sc2cc(OC)ccc12 [3-079] | 5 (Herbicidal rate of 90% or more (almost completely withered)) |
| COc1ccc2c(-c3c(O)c(C)nn(C)c3=O)c(-c3ccc4c(c3)OCCO4)sc2c1 [3-082] | 0 (Herbicidal rate of 5% or less (almost no effect)) |

These compounds were tested on blackgrass (assay: Test Example 5: herbicidal effect by foliage application, plastic box (Table 20, symbol J)). Conditions: foliage application, 320 g/ha, three weeks after application.
Format: in vivo, blackgrass (Alopecurus myosuroides)
In short: as §3

| SMILES | J: blackgrass, herbicidal effect grade |
| --- | --- |
| CCCC(=O)Oc1c(C)nn(C)c(=O)c1-c1c(-c2ccc(F)cc2OCC)sc2cc(OC)ccc12 [3-079] | 4 (Herbicidal rate of 70% or more and less than 90%) |
| COc1ccc2c(-c3c(O)c(C)nn(C)c3=O)c(-c3ccc4c(c3)OCCO4)sc2c1 [3-082] | 1 (Herbicidal rate of 5% or more and less than 20%) |

Each compound was assayed on Italian ryegrass (assay: Test Example 5: herbicidal effect by foliage application, plastic box (Table 20, symbol K)). Conditions: foliage application, 320 g/ha, three weeks after application.
Format: in vivo, Italian ryegrass (Lolium multiflorum)
In short: as §3

| SMILES | K: Italian ryegrass, herbicidal effect grade |
| --- | --- |
| CCCC(=O)Oc1c(C)nn(C)c(=O)c1-c1c(-c2ccc(F)cc2OCC)sc2cc(OC)ccc12 [3-079] | 4 (Herbicidal rate of 70% or more and less than 90%) |
| COc1ccc2c(-c3c(O)c(C)nn(C)c3=O)c(-c3ccc4c(c3)OCCO4)sc2c1 [3-082] | 3 (Herbicidal rate of 40% or more and less than 70%) |

The compounds below were run on windgrass (assay: Test Example 5: herbicidal effect by foliage application, plastic box (Table 20, symbol L)). Conditions: foliage application, 320 g/ha, three weeks after application.
Format: in vivo, windgrass (Apera spica-venti)
In short: as §3

| SMILES | L: windgrass, herbicidal effect grade |
| --- | --- |
| CCCC(=O)Oc1c(C)nn(C)c(=O)c1-c1c(-c2ccc(F)cc2OCC)sc2cc(OC)ccc12 [3-079] | 5 (Herbicidal rate of 90% or more (almost completely withered)) |
| COc1ccc2c(-c3c(O)c(C)nn(C)c3=O)c(-c3ccc4c(c3)OCCO4)sc2c1 [3-082] | 0 (Herbicidal rate of 5% or less (almost no effect)) |

What follows are compounds tested on velvetleaf (assay: Test Example 5: herbicidal effect by foliage application, plastic box (Table 20, symbol M)). Conditions: foliage application, 320 g/ha, three weeks after application.
Format: in vivo, velvetleaf (Abutilon theophrasti)
In short: as §3

| SMILES | M: velvetleaf, herbicidal effect grade |
| --- | --- |
| CCCC(=O)Oc1c(C)nn(C)c(=O)c1-c1c(-c2ccc(F)cc2OCC)sc2cc(OC)ccc12 [3-079] | 5 (Herbicidal rate of 90% or more (almost completely withered)) |
| COc1ccc2c(-c3c(O)c(C)nn(C)c3=O)c(-c3ccc4c(c3)OCCO4)sc2c1 [3-082] | 3 (Herbicidal rate of 40% or more and less than 70%) |

Each compound was assayed on lambsquarters (assay: Test Example 5: herbicidal effect by foliage application, plastic box (Table 20, symbol O)). Conditions: foliage application, 320 g/ha, three weeks after application.
Format: in vivo, lambsquarters (Chenopodium album)
In short: as §3

| SMILES | O: lambsquarters, herbicidal effect grade |
| --- | --- |
| CCCC(=O)Oc1c(C)nn(C)c(=O)c1-c1c(-c2ccc(F)cc2OCC)sc2cc(OC)ccc12 [3-079] | 5 (Herbicidal rate of 90% or more (almost completely withered)) |
| COc1ccc2c(-c3c(O)c(C)nn(C)c3=O)c(-c3ccc4c(c3)OCCO4)sc2c1 [3-082] | 5 (Herbicidal rate of 90% or more (almost completely withered)) |

What follows are compounds tested on chickweed (assay: Test Example 5: herbicidal effect by foliage application, plastic box (Table 20, symbol P)). Conditions: foliage application, 320 g/ha, three weeks after application.
Format: in vivo, common chickweed (Stellaria media)
In short: as §3

| SMILES | P: chickweed, herbicidal effect grade |
| --- | --- |
| CCCC(=O)Oc1c(C)nn(C)c(=O)c1-c1c(-c2ccc(F)cc2OCC)sc2cc(OC)ccc12 [3-079] | 5 (Herbicidal rate of 90% or more (almost completely withered)) |
| COc1ccc2c(-c3c(O)c(C)nn(C)c3=O)c(-c3ccc4c(c3)OCCO4)sc2c1 [3-082] | 5 (Herbicidal rate of 90% or more (almost completely withered)) |

Each compound was assayed on persian speedwell (assay: Test Example 5: herbicidal effect by foliage application, plastic box (Table 20, symbol R)). Conditions: foliage application, 320 g/ha, three weeks after application.
Format: in vivo, Persian speedwell (Veronica persica)
In short: as §3

| SMILES | R: persian speedwell, herbicidal effect grade |
| --- | --- |
| CCCC(=O)Oc1c(C)nn(C)c(=O)c1-c1c(-c2ccc(F)cc2OCC)sc2cc(OC)ccc12 [3-079] | 5 (Herbicidal rate of 90% or more (almost completely withered)) |
| COc1ccc2c(-c3c(O)c(C)nn(C)c3=O)c(-c3ccc4c(c3)OCCO4)sc2c1 [3-082] | 5 (Herbicidal rate of 90% or more (almost completely withered)) |
